pIC50: −log10 of the molar value. Blank lines part the entries; values can stand above or below the compound they belong to.
Tests used:
[1] = test system: 3T3-L1 cells; conditions: 0.1 and 1 uM; basal and insulin (0.7 nM) stimulated; cited from earlier work
[2] = test system: scopolamine-induced memory deficit; assay: Scopolamine-induced memory deficit model, inhibitory avoidance paradigm; assay type: in vivo, rat; conditions: rats, following scopolamine, retrieval trial 24 h later, vs scopolamine followed by vehicle
Procedure: The effect of IRAP inhibitor Compound 1 on scopolamine-induced amnesia was tested in the inhibitory avoidance paradigm.
The inhibitory avoidance box is made up of two chambers, a smaller light compartment and a larger darken compartment and the test comprises of two trials. The first training trial involves placing the rat in the light compartment facing the wall and as soon as it runs to the end of the dark compartment and turns around, an electric shock of 0.6 mA is administered for 2 s and the animal is left in the dark compartment for a total of 15 s before being returned to its home cage. After a 24 h interval, the animal is then tested again and the latency in entering the dark chamber is a measure of the ability of the animal to remember the aversive stimulus. To test for the effect of the IRAP inhibitors, the rats were implanted with a chronic indwelling cannula into the lateral ventricles 1 week before the behavioural experiments. On the day of the testing, 15 min before the training trial, the rats were injected with either […] scopolamine hydrobromide dissolved in 2 ul of 0.9% saline or 0.9% saline before being placed in the inhibitory avoidance box for the training trial. Immediately after the training trial, the rats were injected with either 0.2 or 2 nmol of compound 1 (from Example 1) dissolved in 2 ul of 10% DMSO or vehicle control. […]

[3] = biological target: T1, insulin-regulated aminopeptidase (IRAP) (Homo sapiens, UniProt Q9UIQ6); assay: In vitro enzymatic assay for inhibitors of IRAP (hydrolysis of Leu-MCA, fluorescence); assay type: biochemical; conditions: recombinant full length human IRAP from transfected HEK293 cells; substrate Leu-MCA
T1 construct: containing the cDNA encoding the full length human RAP were utilised; made in house; host or cells: HEK293 cells transfected with pcDNA-3
Procedure: An in vitro enzymatic assay was used for screening for compounds which inhibit IRAP activity. The assay used an aminopeptidase substrate (leucine 4-methylcoumaryl-7-amide), a source of IRAP-containing material, and a candidate inhibitor.
IRAP-containing material was incubated with a synthetic aminopeptidase substrate, such as Leu-MCA (leucine 4-methylcoumaryl-7-amide), and a test substance. Inhibition of the rate of degradation of the synthetic substrate was taken as a measure of the inhibitory effect of the test substance.
As a source of recombinant IRAP, HEK293 cells transfected with a eukaryotic expression vector pcDNA-3 containing the cDNA encoding the full length human RAP were utilised. The assay system involved the measurement of the rate of hydrolysis of Leu-MCA by RAP. […] Candidate test compounds were added to the assay system, and their effects on the hydrolysis of Leu-MCA were taken to be direct indicators of their ability to inhibit IRAP activity.

T1 sequence (Q9UIQ6 whole entry): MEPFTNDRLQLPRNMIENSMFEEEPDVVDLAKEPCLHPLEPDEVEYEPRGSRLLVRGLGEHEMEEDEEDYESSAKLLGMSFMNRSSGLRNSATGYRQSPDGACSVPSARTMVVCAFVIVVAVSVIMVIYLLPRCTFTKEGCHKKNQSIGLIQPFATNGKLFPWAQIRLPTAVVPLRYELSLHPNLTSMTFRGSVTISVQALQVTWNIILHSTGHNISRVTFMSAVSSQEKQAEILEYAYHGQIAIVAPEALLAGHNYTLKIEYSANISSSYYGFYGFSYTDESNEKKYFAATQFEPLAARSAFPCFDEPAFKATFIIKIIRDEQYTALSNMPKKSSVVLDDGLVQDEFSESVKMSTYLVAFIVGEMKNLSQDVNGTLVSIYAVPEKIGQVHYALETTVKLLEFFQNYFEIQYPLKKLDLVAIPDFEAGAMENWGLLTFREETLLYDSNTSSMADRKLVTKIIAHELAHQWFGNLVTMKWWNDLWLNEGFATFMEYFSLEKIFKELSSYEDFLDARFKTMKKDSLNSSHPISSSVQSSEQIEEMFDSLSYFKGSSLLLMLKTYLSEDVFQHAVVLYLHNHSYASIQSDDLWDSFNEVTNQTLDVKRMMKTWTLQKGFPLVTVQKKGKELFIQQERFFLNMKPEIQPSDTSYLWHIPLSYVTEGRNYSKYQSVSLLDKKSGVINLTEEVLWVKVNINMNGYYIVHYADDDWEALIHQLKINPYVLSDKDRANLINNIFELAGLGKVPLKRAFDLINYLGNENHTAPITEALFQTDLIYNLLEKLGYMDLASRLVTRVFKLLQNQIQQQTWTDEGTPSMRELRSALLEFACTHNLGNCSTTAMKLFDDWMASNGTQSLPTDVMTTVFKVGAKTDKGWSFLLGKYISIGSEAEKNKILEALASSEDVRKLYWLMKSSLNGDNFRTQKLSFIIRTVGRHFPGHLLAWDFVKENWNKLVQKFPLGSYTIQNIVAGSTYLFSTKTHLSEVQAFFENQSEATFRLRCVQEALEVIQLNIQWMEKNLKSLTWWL

Compound: CC[C@H](C)[C@H](NC(=O)[C@H](Cc1ccc(O)cc1)NC(=O)[C@@H](N)C(C)C)C(=O)N[C@@H](Cc1cnc[nH]1)C(=O)N1CCC[C@H]1C(=O)N[C@@H](Cc1ccccc1)C(=O)O [Ang IV]
glucose uptake [1]: enhance

Compound: COc1ccc(C2C(C#N)=C(N)Oc3cc(O)ccc32)cc1OC (stereo not shown) [Compound 3]
pIC50 [3]: 4.35

Second part, led by results:

pIC50 [3]: 5.40
Compound: CCOC(=O)C1=C(N)Oc2cc(O)ccc2C1c1cccnc1 (stereo not shown) [Compound 1]
latency in entering the dark chamber ([2]; 0.2 nmol icv immediately after training trial): increased latencies
latency in entering the dark chamber ([2]; 2 nmol icv immediately after training trial): increased latencies

pIC50 [3]: 4.38
Compound: CCOC(=O)C1=C(N)Oc2cc(O)ccc2C1c1cccc(Cl)c1 (stereo not shown) [Compound 2]

pIC50 [3]: 4.10
Compound: COc1ccc(C2C(C#N)=C(N)Oc3cc(O)ccc32)cc1 (stereo not shown) [Compound 9]
